Tests used:
[1] = system: YT (Other Blood Carcinomas); assay: Bliss excess, mean over the matrix (fraction); higher = more synergy
Summary of the method: (§1)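 Bliss excess equals the observed combination effect minus the expected value EA + EB − EA·EB, where EA and EB are the effects of each agent alone. Combination Emax is the second-highest inhibition within the matrix. Inhibition was scaled from CellTiter-Glo 2.0 luminescence, with 0 set by vehicle wells and 1 by blank wells, after 72 hours of two-drug dosing of cells plated in 1536-well plates.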

D-392MG (Glioblastoma) = assay: as above
Summary of the method: as §1

[2] = system: SW948 (Colorectal Carcinoma); assay: as above
Summary of the method: as §1

[3] = system: SK-UT-1 (Other Solid Carcinomas); assay: as above
Summary of the method: as §1

[4] = system: TYK-nu (Ovarian Carcinoma); assay: as above
Summary of the method: as §1

EW-22 (Ewing's Sarcoma) [5] = assay: as above
Summary of the method: as §1

[6] = system: SK-LMS-1 (Other Solid Carcinomas); assay: as above
Summary of the method: as §1

[7] = system: RCC10RGB (Kidney Carcinoma); assay: as above
Summary of the method: as §1

[8] = system: BICR78 (Oral Cavity Carcinoma); assay: as above
Summary of the method: as §1

Saos-2 (Osteosarcoma) [9] = assay: as above
Summary of the method: as §1

[10] = system: P31-FUJ (Acute Myeloid Leukemia); assay: as above
Summary of the method: as §1

[11] = system: EFM-192A (Breast Carcinoma); assay: as above
Summary of the method: as §1

[12] = system: PA-TU-8902 (Pancreatic Carcinoma); assay: as above
Summary of the method: as §1

[13] = system: HCC-827 (Lung Adenocarcinoma); assay: as above
Summary of the method: as §1

[14] = system: 647-V (Bladder Carcinoma); assay: combination Emax (second highest fraction inhibited in the dose matrix, 72 h); higher = more inhibition; extreme values may be limits of the assay
Summary of the method: as §1

CS1 (Chondrosarcoma) = assay: as above
Summary of the method: as §1

EW-22 (Ewing's Sarcoma) [15] = assay: as above
Summary of the method: as §1

[16] = system: HOP-92 (Non-Small Cell Lung Carcinoma); assay: as above
Summary of the method: as §1

Saos-2 (Osteosarcoma) [17] = assay: as above
Summary of the method: as §1

[18] = system: SW48 (Colorectal Carcinoma); assay: as above
Summary of the method: as §1

SMILES	Bliss excess [1]	Bliss excess (D-392MG (Glioblastoma))	Bliss excess [2]	Bliss excess [3]	Bliss excess [4]	Bliss excess (EW-22 (Ewing's Sarcoma) [5])	Bliss excess [6]	Bliss excess [7]	Bliss excess [8]	Bliss excess (Saos-2 (Osteosarcoma) [9])	Bliss excess [10]	Bliss excess [11]	Bliss excess [12]	Bliss excess [13]	combination Emax [14]	combination Emax (CS1 (Chondrosarcoma))	combination Emax (EW-22 (Ewing's Sarcoma) [15])	combination Emax [16]	combination Emax (Saos-2 (Osteosarcoma) [17])	combination Emax [18]
COc1cccc(OCCCN)c1-c1cc(Nc2cnc(C#N)cn2)n[nH]1 [Prexasertib] + C[C@@H]1COCCN1C2=NC(=NC(=C2)C3(CC3)[S@](=N)(=O)C)C4=C5C=CNC5=NC=C4 [AZD6738] (first compound max 1 µM, 7x7, partner max 10 µM)	-0.0631	0.0355	0.0334	-0.0259	-0.0604	-0.0326	-0.029	0.0657	-0.0057	-0.0739	0.0092	0.0131	0.0229	-0.0234	0.703	0.714	0.888	0.669	0.704	0.81
COc1cccc(OCCCN)c1-c1cc(Nc2cnc(C#N)cn2)n[nH]1 [Prexasertib] + CN(C)CCCOc1ccc(-c2ccc3ncc4c(c3c2)n(C2CCOCC2)c(=O)n4C)cn1 [AZD0156] (first compound max 1 µM, 7x7, partner max 1 µM)	-0.0114	-0.0235	0.0294	-0.0039	-0.0627	-0.05	-0.02	-0.0296	-0.0292	-0.0869	0.009	0.0078	0.0068	-0.0026	0.671	0.685	0.898	0.704	0.644	0.767
Cc1c2c(nn1C)CSCc1cc(n(C)n1)CSc1cc(c3ccccc3c1)OCCCc1c(C(=O)O)n(C)c3c-2c(Cl)ccc13 [AZD5991] + C[C@@H](Nc1cc(F)cc(F)c1)c1cc(C(=O)N(C)C)cc2c(=O)cc(N3CCOCC3)oc12 [AZD8186] (first compound max 1 µM, 7x7, partner max 3 µM)	0.0223	0.0111	-0.0498	-0.0104	-0.0118	-0.0396	-0.0056	-0.0349	-0.034	-0.0271	-0.041	-0.0207	-0.0361	0.0064	0.802	0.235	0.491	0.587	0.491	0.387
CN(CCO)CC[C@H](CSc1ccccc1)Nc1ccc(S(=O)(=O)NC(=O)c2ccc(N3CCC([C@@H](O)c4ccccc4-c4ccc(Cl)cc4)CC3)cc2)cc1S(=O)(=O)C(F)(F)F [AZD4320] + C[C@@H](Nc1cc(F)cc(F)c1)c1cc(C(=O)N(C)C)cc2c(=O)cc(N3CCOCC3)oc12 [AZD8186] (first compound max 1 µM, 7x7, partner max 3 µM)	0.0327	-0.104	-0.101	0.002	-0.0224	-0.0261	0.0304	-0.0652	-0.0594	-0.0258	0.019	0.0057	-0.0139	-0.0294	0.989	0.839	1	0.967	0.478	0.914
CC1(C)CCC(CN2CCN(c3ccc(C(=O)NS(=O)(=O)c4ccc(NCC5CCOCC5)c([N+](=O)[O-])c4)c(Oc4cnc5[nH]ccc5c4)c3)CC2)=C(c2ccc(Cl)cc2)C1 [Venetoclax] + CCN(CCO)CCCOc1ccc2c(Nc3cc(CC(=O)Nc4cccc(F)c4)[nH]n3)ncnc2c1 [AZD2811] (first compound max 1 µM, 7x7, partner max 1 µM)	-0.0328	-0.0351	-0.0229	0.0491	-0.0266	0.0583	-0.0616	-0.066	-0.0393	0.0727	-0.0512	0.0097	-0.0417	-0.015	0.245	0.434	0.924	0.476	0.648	0.958
CCc1c2c(nc3ccc(O)cc13)-c1cc3c(c(=O)n1C2)COC(=O)[C@]3(O)CC [SN-38] + CN(C)CCCOc1ccc(-c2ccc3ncc4c(c3c2)n(C2CCOCC2)c(=O)n4C)cn1 [AZD0156] (first compound max 0.3 µM, 7x7, partner max 1 µM)	-0.0872	0.0957	0.237	0.0533	-0.0182	0.0276	0.0274	-0.0262	-0.0014	-0.0279	0.0647	-0.0268	0.0406	0.0556	0.985	0.821	0.951	0.606	0.944	0.826

— the supplement of paper PMC11061612
